Usually IC90 stands for the concentration at which the effect reaches the 90% level.

We go through 41 molecules from EP4810040A2, “INHIBITORS OF APOL1 AND METHODS OF USING SAME” (priority 2020, dated 2022).

This assay has as its target T1, APOL1 G1 (Homo sapiens, UniProt O14791, I384M/S342G).
T1 sequence (O14791 28-398 S342G/I384M): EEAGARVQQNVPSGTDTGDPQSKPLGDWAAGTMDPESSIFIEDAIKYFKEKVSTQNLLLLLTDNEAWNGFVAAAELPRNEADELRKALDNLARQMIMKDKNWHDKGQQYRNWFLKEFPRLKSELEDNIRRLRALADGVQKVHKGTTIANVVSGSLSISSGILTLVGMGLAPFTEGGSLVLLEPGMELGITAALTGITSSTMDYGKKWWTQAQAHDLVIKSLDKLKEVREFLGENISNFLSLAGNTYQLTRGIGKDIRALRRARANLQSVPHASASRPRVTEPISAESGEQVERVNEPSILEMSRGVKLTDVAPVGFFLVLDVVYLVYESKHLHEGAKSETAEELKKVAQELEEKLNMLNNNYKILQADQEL
The assay is described as follows: MultiTox-Fluor Multiplex Cytotoxicity Assay, tet-inducible APOL1 G1 T-REx-HEK293 cells. Format: cell-based. Also noted: expressed in transfected cells; host or cells: T-REx HEK293, clone G1 DC3.25 (pAAVS1-Puro-APOL1 G1). To be noted: for IC90: read-out: Multi-Tox Assay IC90; for Emax: read-out: Multi-Tox Assay Max Activity (%). The method, boiled down: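 T-REx-HEK293 cells carrying tet-inducible APOL1 G1 induced with 50 ng/mL tet alongside compound (top 10 µM, 10-point 3-fold, duplicate) for 24 h at 37 °C. MultiTox-Fluor dead/live protease fluorescence ratio read after 30 min; normalized to no-tet (100% viability) and tet-treated (0%) controls, then curve-fitted.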

Where [1] appears, read: HEK293, Multi-Tox Assay, APOL1 variant (G0/G1/G2) of the HEK293 cells not given.
The mark [2] stands for this setting: Multi-Tox Assay, APOL1 variant not given.

Each structure is given as a SMILES string. Where two headings read alike, the source gives them in different places. A value given as a limit tells only on which side of the number the result lay.

As to `COCCn1cc([C@@H]2C[C@]3(C[C@H](C)N2)OC[C@@H](O)c2cc(Cl)sc23)nn1` [Compound 282], the 90% effect concentration (IC90) under setting [1] lay in the range of 50 to 500 nM. As to `CNC(=O)C(C)Cn1cc([C@@H]2C[C@]3(C[C@H](C)N2)OC[C@@H](O)c2cc(Cl)sc23)nn1` (stereo partly shown) [Compound 258], under setting [1], the 90% effect concentration (IC90) was > 500 nM. Also, the “Multi-Tox Assay Max Activity (%)” value under setting [2] stood at 98.0%. The matching figures for `COc1cccc(Cn2cc([C@@H]3C[C@]4(C[C@H](C)N3)OCC(F)(F)c3cc(Cl)sc34)nn2)c1` [Compound 319]: 50 to 500 nM and 95.0%. On the same counts, the results for `C[C@H]1C[C@@]2(C[C@@H](c3cn(CC(F)F)nn3)N1)OCC(F)(F)c1cc(Cl)sc12` [Compound 324] are > 500 nM and 96.0%. On to `C[C@H]1C[C@@]2(C[C@@H](c3ncnn3C)N1)OCCc1cc(Cl)sc12` (racemic) [Compound 171], for which the IC90 under setting [1] was > 500 nM. Also, the “Multi-Tox Assay Max Activity (%)” value under setting [2] was determined as 71.8%. Take `C[C@H]1C[C@@]2(C[C@@H](c3ccc(N(C)C)nc3)N1)OCCc1cc(Cl)sc12` (racemic) [Compound 89]: under setting [1], the IC90 is < 50 nM. Also, the Emax under setting [2] is 99.3%.

As for `C[C@H]1C[C@@]2(C[C@@H](c3c[nH]nn3)N1)OCCc1cc(Cl)sc12` (racemic) [Compound 72], under setting [1], the concentration for an effect of 90% (IC90) is < 50 nM. In addition, the Emax under setting [2] came to 99.7%. In the case of `C[C@H]1C[C@@]2(C[C@@H](c3cccc(S(C)(=O)=O)c3)N1)OCCc1cc(Cl)sc12` (racemic) [Compound 146], the IC90 under setting [1] fell in the range of 50 to 500 nM. Also, under setting [2], the “Multi-Tox Assay Max Activity (%)” value was 97.0%. For `C[C@H]1C[C@@]2(C[C@@H](c3cn(Cc4cnc5cnccn45)nn3)N1)OC[C@@H](O)c1cc(Cl)sc12` [Compound 243], the concentration for an effect of 90% (IC90) under setting [1] fell in the range of 50 to 500 nM. Also, under setting [2], the “Multi-Tox Assay Max Activity (%)” value is 98.0%. For `COc1ccc(C2CC3(CC(C)N2)OCCc2cc(Cl)sc23)nn1` (mixture of isomers) [Compound 76], under setting [1], the concentration for an effect of 90% (IC90) was < 50 nM. Also, under setting [2], the Emax was 99.3%.

As for `C[C@H]1C[C@@]2(C[C@@H](c3cn(Cc4cccc(O)c4)nn3)N1)OC[C@@H](O)c1cc(Cl)sc12` [Compound 279], the IC90 under setting [1] fell in the range of 50 to 500 nM. In addition, the “Multi-Tox Assay Max Activity (%)” value under setting [2] came to 97.0%. For `C[C@H]1C[C@@]2(C[C@@H](c3ccn(C)n3)N1)OCCc1cc(Cl)sc12` (racemic) [Compound 118], under setting [1], the IC90 was in the range of 50 to 500 nM. Besides, the “Multi-Tox Assay Max Activity (%)” value under setting [2] is recorded as 99.3%. On the same counts, the results for `C[C@H]1C[C@@]2(C[C@@H](c3cccc(C#N)n3)N1)OCCc1cc(Cl)sc12` (racemic) [Compound 53] are < 50 nM and 99.3%. The matching figures for `Cc1nn(CCO)cc1[C@@H]1C[C@]2(C[C@H](C)N1)OCCc1cc(Cl)sc12` (racemic) [Compound 158]: > 500 nM and 90.4%. On the same counts, the results for `C[C@H]1C[C@@]2(C[C@@H](c3ccc(C(F)(F)F)nc3)N1)OCCc1cc(Cl)sc12` (racemic) [Compound 123] are 50 to 500 nM and 100.0%.

With `C[C@H]1C[C@@]2(C[C@@H](c3cn(Cc4cccc5c4OCCO5)nn3)N1)OC[C@@H](O)c1cc(Cl)sc12` [Compound 268], under setting [1], the 90% effect concentration (IC90) fell in the range of 50 to 500 nM. Regarding `C[C@H]1C[C@@]2(C[C@@H](c3cn(Cc4ccc(O)nc4)nn3)N1)OCC(F)(F)c1cc(Cl)sc12` [Compound 316], under setting [1], the IC90 is > 500 nM. Moreover, the “Multi-Tox Assay Max Activity (%)” value under setting [2] is 95.0%. Regarding `COc1ccc(Cn2cc([C@@H]3C[C@]4(C[C@H](C)N3)OCC(F)(F)c3cc(Cl)sc34)nn2)cn1` [Compound 360], the IC90 under setting [1] fell in the range of 50 to 500 nM. On to `C[C@@H]1CC2(C[C@H](C)N1)OCCc1cc(C3CC(F)(F)C3)sc12` (single isomer, unassigned) [Compound 198], for which, under setting [1], the IC90 lay in the range of 50 to 500 nM. For the same molecule, the Emax under setting [2] was found to be 98.7%.

For the molecule `COc1nccc([C@@H]2C[C@]3(C[C@H](C)N2)OCCc2cc(Cl)sc23)n1` (racemic) [Compound 110], the IC90 under setting [1] was 50 to 500 nM. In addition, the “Multi-Tox Assay Max Activity (%)” value under setting [2] was determined as 99.2%. With `Cc1ncc([C@@H]2C[C@]3(C[C@H](C)N2)OCCc2cc(Cl)sc23)cn1` (racemic) [Compound 82], the concentration for an effect of 90% (IC90) under setting [1] is < 50 nM. Moreover, under setting [2], the Emax stood at 99.7%. As for `C[C@H]1C[C@@]2(C[C@@H](c3cn(Cc4cccc(CO)c4)nn3)N1)OCC(F)(F)c1cc(Cl)sc12` [Compound 313], under setting [1], the concentration for an effect of 90% (IC90) lay in the range of 50 to 500 nM. Moreover, the “Multi-Tox Assay Max Activity (%)” value under setting [2] is recorded as 98.0%. On to `CC1CC2(CC(c3cn(CC4CC4)nn3)N1)OCCc1cc(Cl)sc12` (stereo not shown) [Compound 122], for which the IC90 under setting [1] was in the range of 50 to 500 nM. Under setting [2], the “Multi-Tox Assay Max Activity (%)” value turned out to be 99.7%. Consider `Cc1nc([C@@H]2C[C@]3(C[C@H](C)N2)OCCc2cc(Cl)sc23)c[nH]1` (racemic) [Compound 156], for which the 90% effect concentration (IC90) under setting [1] is > 500 nM. Also, the “Multi-Tox Assay Max Activity (%)” value under setting [2] worked out at 93.0%. The matching figures for `Cc1nc([C@@H]2C[C@]3(C[C@H](C)N2)OCCc2cc(Cl)sc23)[nH]c1C` (racemic) [Compound 150]: > 500 nM and 96.3%.

For `C[C@H]1C[C@@]2(C[C@@H](c3cn(Cc4ccc(CO)cc4)nn3)N1)OC[C@@H](O)c1cc(Cl)sc12` [Compound 224, (2'S,4S,6'S,7S)-2-chloro-2'-[1-[[4-(hydroxymethyl)phenyl]methyl]triazol-4-yl]-6'-methyl-spiro[4,5-dihydrothieno[2,3-c]pyran-7,4'-piperidine]-4-ol], the IC90 under setting [1] is 50 to 500 nM. Also, the Emax under setting [2] was found to be 99%. Regarding `C[C@H]1C[C@@]2(C[C@@H](c3cn(Cc4n[nH]c5ccccc45)nn3)N1)OC[C@@H](O)c1cc(Cl)sc12` [Compound 232], the concentration for an effect of 90% (IC90) under setting [1] was in the range of 50 to 500 nM. Also, the “Multi-Tox Assay Max Activity (%)” value under setting [2] turned out to be 100.0%. On the same counts, the results for `CC1CC2(CC(c3cnn(CCS(C)(=O)=O)c3)N1)OCCc1sc(C(F)(F)F)cc12` (stereo not shown) [Compound 9] are 50 to 500 nM and 100.0%. Consider `C[C@H]1C[C@@]2(C[C@@H](c3cn(C)nn3)N1)OCCc1cc(C(F)(F)F)sc12` [Compound 2, (2'S,6'S,7S)-2'-methyl-6'-(1-methyltriazol-4-yl)-2-(trifluoromethyl)spiro[4,5-dihydrothieno[2,3-c]pyran-7,4'-piperidine]], for which the IC90 under setting [1] is < 50 nM. Besides, the Emax under setting [2] was 100%. With `CCOc1cc([C@@H]2C[C@]3(C[C@H](C)N2)OCCc2cc(Cl)sc23)ccc1O` (racemic) [Compound 102], the IC90 under setting [1] was < 50 nM. Under setting [2], the “Multi-Tox Assay Max Activity (%)” value is reported as 99.8%.

Consider `C[C@H]1C[C@@]2(C[C@@H](c3cn(Cc4cccc5c4OCCO5)nn3)N1)OCC(F)(F)c1cc(Cl)sc12` [Compound 310], for which the concentration for an effect of 90% (IC90) under setting [1] was > 500 nM. In addition, the “Multi-Tox Assay Max Activity (%)” value under setting [2] is reported as 94.0%. On the same counts, the results for `C[C@H]1C[C@@]2(C[C@@H](c3ccc(O)c(F)c3)N1)OCCc1cc(Cl)sc12` [Compound 51] are < 50 nM and 99.7%.

Consider `Cc1ccc([C@@H]2C[C@]3(C[C@H](C)N2)OCCc2cc(Cl)sc23)nc1` (racemic) [Compound 77], for which the 90% effect concentration (IC90) under setting [1] is < 50 nM. For the same molecule, the Emax under setting [2] came out at 99%. As to `COCCOCCn1cc([C@@H]2C[C@]3(C[C@H](C)N2)OC[C@@H](O)c2cc(Cl)sc23)nn1` [Compound 229], under setting [1], the IC90 is 50 to 500 nM. Besides, under setting [2], the “Multi-Tox Assay Max Activity (%)” value worked out at 98.0%. On the same counts, the results for `Cc1ccnc([C@@H]2C[C@]3(C[C@H](C)N2)OCCc2cc(Cl)sc23)c1` (racemic) [Compound 139] are 50 to 500 nM and 98.0%. On the same counts, the results for `CCc1cc2c(s1)C(C)COC21C[C@@H](c2cn(C)nn2)N[C@@H](C)C1` (single isomer, unassigned) [Compound 10] are < 50 nM and 99.7%. Consider `CCC1CC2(CC(C)N1)OCCc1cc(Cl)sc12` (mixture of isomers) [Compound 215], for which the concentration for an effect of 90% (IC90) under setting [1] lay within 50 to 500 nM. The Emax under setting [2] was determined as 99.3%.

Regarding `CC(=O)NC1([C@@H]2C[C@]3(C[C@H](C)N2)OCCc2cc(Cl)sc23)CC1` [Compound 379, N-[1-[(2'S,6'S,7S)-2-chloro-6'-methyl-spiro[4,5-dihydrothieno[2,3-c]pyran-7,4'-piperidine]-2'-yl]cyclopropyl]acetamide], the concentration for an effect of 90% (IC90) (Multi-Tox Assay, APOL1 variant (G0/G1/G2) not stated in Table 46) is > 500 nM. Further, the “Multi-Tox Assay Max Activity (%)” value (Multi-Tox Assay, APOL1 variant not stated in Table 46) was 94.0%. In the case of `CCc1nc([C@@H]2C[C@]3(C[C@H](C)N2)OCCc2cc(Cl)sc23)c[nH]1` (racemic) [Compound 128], the 90% effect concentration (IC90) under setting [1] was 50 to 500 nM. Also, under setting [2], the “Multi-Tox Assay Max Activity (%)” value is recorded as 99.3%.

In the case of `Cc1noc2cc([C@@H]3C[C@]4(C[C@H](C)N3)OCCc3cc(Cl)sc34)ccc12` (racemic) [Compound 25], the IC90 under setting [1] was < 50 nM. Also, the “Multi-Tox Assay Max Activity (%)” value under setting [2] turned out to be 100.0%.

Turning to `C[C@H]1C[C@@]2(C[C@@H](c3cc(C4CC4)no3)N1)OCCc1cc(Cl)sc12` (racemic) [Compound 87], the IC90 under setting [1] was < 50 nM. Also, the Emax under setting [2] came out at 99.3%.
